Experimental data: US11130780B2, “Inhibitors of growth factor activation enzymes” (Washington University, priority 2015, dated 2021)
“And” between values parts separate entries of the source, which are not always exact repeats. Identical values can stand only once. Like-named read-outs stand apart in the source and are kept apart here. Each block holds one compound with its values, some of them ahead of it.

Key:
Format in all cases: biochemical
[1] = target: T1, hepsin (Homo sapiens, UniProt P05981); test: Fluorescent kinetic enzyme inhibitor assay of hepsin; conditions: Fluorogenic Assay, read-out: Hepsin Ki
T1 construct: purchased R&D Systems 4776-SE-010
Description: (§1) Inhibitors (11-pt serial dilutions, 0-20 μM final concentration in reaction) were serially diluted in DMSO (2% DMSO final concentration) and then mixed with either recombinant serine protease domain of HGFA [Z. Han, P. K. Harris, D. E. Jones, R. Chugani, T. Kim, M. Agarwal, W. Shen, S. A. Wildman, J. W. Janetka, Acs Med Chem Lett 2014, 5, 1219-1224], matriptase (Charles Craik, UCSF) or hepsin* (#4776-SE-010, R&D Systems, Minneapolis, Minn.) in black 384 well plates (Corning #3575. Corning, N.Y.). […] The final substrate concentrations for all assays were at the Km for the respective enzymes. Changes in fluorescence (excitation at 380 nm and emission at 460 nm) were measured at room temperature over time in a Biotek Synergy 2 plate reader (Winnoski, Vt.). Using GraphPad Prism version 6.04 software program, (GraphPad Software, San Diego, Calif., www.graphpad.com), a four parameter curve fit was used to determine the inhibitor IC50s from a plot of the mean reaction velocity versus the inhibitor concentration. The IC50 values represent the average of three separate experimental determinations.

[2] = target: T2, HGFA (Homo sapiens, UniProt Q04756); test: Fluorescent kinetic enzyme inhibitor assay of HGFA; conditions: Fluorogenic Assay, read-out: HGFA Ki
T2 construct: His6 tag (N); seven amino acid spacer and seven amino acid TEV cleavage site (N); Honey Bee melittin signal peptide (N); made in house; host or cells: High 5 insect cells (baculovirus; virus raised in Sf9)
T2 sequence (Q04756 373-655): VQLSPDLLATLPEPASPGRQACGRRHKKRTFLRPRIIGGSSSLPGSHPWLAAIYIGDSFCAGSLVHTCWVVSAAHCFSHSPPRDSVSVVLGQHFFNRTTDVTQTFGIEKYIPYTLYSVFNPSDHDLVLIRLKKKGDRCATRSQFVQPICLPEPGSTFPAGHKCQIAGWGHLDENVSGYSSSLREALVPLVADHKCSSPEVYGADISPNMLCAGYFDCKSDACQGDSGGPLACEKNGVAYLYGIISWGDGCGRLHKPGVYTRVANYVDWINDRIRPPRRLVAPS
Description: Using primers identified as SEQ ID NO 1, SEQ ID NO 2, and standard PCR protocols, the nucleotide sequence encoding amino acids 373-655 of HGFA was synthesized. This PCR product was cloned into the SfoI-HindIII sites of a modified pFastBac HT baculovirus expression vector (Addgene, Cambridge, Mass.). This vector contains a six amino His tag followed by a seven amino spacer and a seven amino acid TEV cleavage site placed immediately downstream of the Honey Bee melittin signal peptide. Using a modified Bac to Bac Expression System (Life Technologies, Carlsbad, Calif.), recombinant HGFA bacmids were obtained by transforming DH10Bac Escherichia coli cells. To obtain HGFA containing baculovirus, purified bacmids were transfected into Sf9 insect cells. After 5 days in culture at 27° C., media was harvested from transfected Sf9 cells. This media was used to prepare baculovirus infected insect cells (BIICs). These BIIICs were used to infect High 5 insect cells. Four days post infection, media was harvested and recombinant protein prepared as follows. Media was chilled to 4° C. and spun at 4000×g for 20 minutes (all subsequent steps were performed at 4° C. unless noted). Clarified media was passed first through a Whatman GF/B 1 um (#1821-047, GE Healthcare Life Sciences, Piscataway, N.J.) and then a 0.22 um PES membrane (#99955, TPP Techno Plastic Products AG, Trasadingen, Switzerland) and then concentrated using a Pall Centramate tangential flow system and Centramate T-series Cassette (#OS010T12, Pall Corporation, Port Washington, N.Y.). Concentrated media was then buffer exchanged in two steps, five volumes of 50 mM Na-phosphate, 500 mM NaCl, pH 6.2, followed by five volumes of 50 mM Na-phosphate, 500 mM NaCl, pH 7.5. The concentrated and buffered exchanged insect cell media was again filtered as above and made 25 mM imidazole (#1202, Sigma-Aldrich, St. Louis, Mo.) and was mixed with nickel agarose beads (#H-321-25, Gold Biotechnology, Inc., St. Louis Mo.). After mixing this slurry for 12 hours, nickel agarose beads were allowed to settle by gravity and then loaded into a column. Beads were washed with buffer (25 mM Na-phosphate, 500 mM NaCl, 25 mM imidazole, pH 8) and the bound protein eluted using (25 mM Na-phosphate, 500 mM NaCl, 250 mM imidazole, pH 8). Using a Amicon Ultra-4 Centrifugal filters (#UFC801008, Merck Millipore, Ltd., Tullagreen, Ireland), peak protein fractions were concentrated and run over a Superdex-200 10/300 GL column (GE Healthcare Life Sciences, Piscataway, N.J.) in 10 mM Tris, 200 mM NaCl, 0.2 mM EDTA, pH 8. HGFA containing fractions were pooled, concentrated, made 50% glycerol, and stored at minus 20° C. Protein was quantitated using a modified Lowry protein assay (#500-0006, Bio-Rad Laboratories, Hercules, Calif.).
as §1

[3] = target: T3, matriptase (Homo sapiens, UniProt Q9Y5Y6); test: Fluorescent kinetic enzyme inhibitor assay of matriptase; conditions: Fluorogenic Assay
T3 construct: Charles Craik, UCSF (obtained from another laboratory)
T3 sequence (Q9Y5Y6 615-855 limits assumed): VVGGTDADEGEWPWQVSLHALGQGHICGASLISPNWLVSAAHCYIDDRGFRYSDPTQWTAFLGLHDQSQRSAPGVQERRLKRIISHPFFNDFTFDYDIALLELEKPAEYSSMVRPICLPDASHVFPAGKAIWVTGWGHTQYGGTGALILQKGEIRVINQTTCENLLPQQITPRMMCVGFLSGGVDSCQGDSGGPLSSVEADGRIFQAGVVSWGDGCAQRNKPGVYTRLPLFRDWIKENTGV
Description: as §1

[4] = target: T1, hepsin; test: P4-P2 substrate specificity using HyCoSuL, hepsin; parameters: concentration or dose not given beside the values; conditions: HyCoSuL substrate library; for P2 Position % Activity Hepsin: amino acid fixed at P2 position; for P3 Position % Activity Hepsin: amino acid fixed at P3 position; for P4 Position % Activity Hepsin: amino acid fixed at P4 position
Description: (§2) Each of the P4, P3, and P2 sublibraries were screened at the 100 μM concentration with hepsin either HGFA in a 100 μL final volume per well (99 μL of protease in buffer+1 μL of 10 mM substrates mixture). The total time of the assay was 30 minutes, however only linear portions of the progress curve (5-15 minutes) were used for velocity (RFU/s) calculations. Each sublibrary screening was repeated at least 3-times and the average value calculated from each measurement was used to create the substrate specificity matrix—the best recognized amino acid in each position was set to 100%, and other amino acids were adjusted accordingly.
Recombinant human hepsin (10 μg in 20 uL, 4776-SE-010, R&D Systems) was added to the 100 μL of activation buffer (0.1 M Tris, 0.15 M NaCl, 0.01 M CaCl2, 0.05% TRITON-X, pH=8.0) and incubated at 37° C. for 24 hours (hepsin concentration in activation buffer 2 μM). Once activated hepsin was diluted in assay buffer (0.05 M Tris, pH=9.0) to the final concentration of 4 nM and incubated at 37° C. for 15 minutes before added to a substrate.

[5] = target: T4, HGFA (Homo sapiens, UniProt Q04756); test: P4-P2 substrate specificity using HyCoSuL, HGFA; parameters: P3 Position % Activity HGFA / P2 Position % Activity HGFA: concentration or dose not given beside the values; P4 Position % Activity HGFA: tested at 100 µM; conditions: HyCoSuL substrate library; for P2 Position % Activity HGFA: amino acid fixed at P2 position; for P3 Position % Activity HGFA: amino acid fixed at P3 position; for P4 Position % Activity HGFA: amino acid fixed at P4 position
T4 sequence (Q04756 408-655 limits assumed): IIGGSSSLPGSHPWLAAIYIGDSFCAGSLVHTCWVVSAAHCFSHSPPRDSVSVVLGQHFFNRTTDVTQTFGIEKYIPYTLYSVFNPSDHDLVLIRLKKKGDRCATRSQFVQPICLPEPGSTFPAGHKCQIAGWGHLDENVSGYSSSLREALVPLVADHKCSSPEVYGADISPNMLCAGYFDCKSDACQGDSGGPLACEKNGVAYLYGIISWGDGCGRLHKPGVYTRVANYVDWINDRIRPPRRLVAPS
T4 sequence (Q04756 373-407 partner limits assumed): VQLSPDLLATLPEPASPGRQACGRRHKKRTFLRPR
Description: as §2
HFGA enzyme was diluted in the assay buffer (0.15 M NaCl, 0.025 M Tris, 0.005 M CaCl2, pH=8.0) to the final concentration of 10-20 nM (depending of sublibrary) and incubated at 25° C. for 30 minutes before added to a substrate.

T1 sequence (P05981 163-417 limits assumed): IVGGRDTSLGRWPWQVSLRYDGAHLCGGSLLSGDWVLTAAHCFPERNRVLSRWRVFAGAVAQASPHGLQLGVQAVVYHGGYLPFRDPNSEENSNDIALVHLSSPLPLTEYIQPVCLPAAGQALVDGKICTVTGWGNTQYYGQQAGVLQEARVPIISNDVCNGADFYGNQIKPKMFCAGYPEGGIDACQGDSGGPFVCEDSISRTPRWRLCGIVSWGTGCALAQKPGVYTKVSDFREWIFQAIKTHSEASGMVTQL
T1 sequence (P05981 45-162 partner limits assumed): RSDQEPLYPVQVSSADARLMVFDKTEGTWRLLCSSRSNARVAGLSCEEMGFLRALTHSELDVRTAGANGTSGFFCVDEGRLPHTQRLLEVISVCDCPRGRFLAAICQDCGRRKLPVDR

Compound: N=C(N)NCCC[C@H](NC(=O)[C@H](Cc1ccccc1)NC(=O)[C@H](N)Cc1c[nH]c2ccccc12)C(=O)c1nc2ccc(C(=O)O)cc2s1 [Compound 1-45A1, H-dWFR-kbt-COOH]
Ki ([1]; Table 6.1): 1.41 nM
Ki ([2]; Table 6.1): 981 nM

Compound: N=C(N)c1cccc(C[C@H](NS(=O)(=O)c2ccc3ccccc3c2)C(=O)N2CCC(c3ccccc3)CC2)c1 [Compound 16, (S)-3-(2-(Naphthalene-2-sulfonamido)-3-oxo-3-(4-phenylpiperidin-1-yl)propyl)benzimidamide]
Ki ([3]; Table 9.1): 300 nM
Ki ([1]; Table 9.1): 3280 nM
Ki ([2]; Table 9.1): 10100 nM

Compound: N=C(N)c1cccc(C[C@H](NS(=O)(=O)c2ccc3ccccc3c2)C(=O)N2CCN(C(=O)NCc3ccccc3)CC2)c1 [Compound 17a, (S)—N-Benzyl-4-(3-(3-carbamimidoylphenyl)-2-(naphthalene-2-sulfonamido)propanoyl)piperazine-1-carboxamide]
Ki ([3]; Table 9.1): 2060 nM and 2560 nM
Ki ([1]; Table 9.1): 1000 nM and 1040 nM
Ki ([2]; Table 9.1, listed as FMF-1-279-003): 14000 nM
Ki ([2]; Table 9.1): 14000 nM

Compound: Cc1ccc(S(=O)(=O)N[C@@H](Cc2cccc(C(=N)N)c2)C(=O)N2CCC[C@H](NC(=O)OCc3ccccc3)C2)cc1 [Compound 18, Benzyl (S)-1-((S)-3-(3-carbamimidoylphenyl)-2-(4-methylphenylsulfonamido)propanoyl)piperidin-3-ylcarbamate]
Ki ([3]; Table 9.2): 1000 nM
Ki ([1]; Table 9.2): 2300 nM
Ki ([2]; Table 9.2): > 50000 nM

Compound: Cc1ccc(S(=O)(=O)N[C@@H](Cc2cccc(C(=N)N)c2)C(=O)N2CCN(C(=O)OCc3ccccc3)CC2)cc1 [Compound 25h, (S)-Benzyl 4-(3-(3-carbamimidoylphenyl)-2-(4-methylphenylsulfonamido)propanoyl)piperazine-1-carboxylate]
Ki ([1]; Table 9.1): 2400 nM
Ki ([2]; Table 9.1): > 50000 nM

Compound: CC(C)c1cc(C(C)C)c(S(=O)(=O)N[C@@H](Cc2cccc(C(=N)N)c2)C(=O)N2CCN(C(=O)C3CCNCC3)CC2)c(C(C)C)c1 [Compound 26]
Ki ([1]; Table 9.1): 8140 nM and 8130 nM

Compound: CC(C)C(=O)N1CCN(C(=O)[C@H](Cc2cccc(C(=N)N)c2)NS(=O)(=O)c2ccc3ccccc3c2)CC1 [Compound 29]
Ki ([3]; Table 9.1): > 20000 nM
Ki ([1]; Table 9.1): > 20000 nM

Compound: CC(C)CN1CCN(C(=O)[C@H](Cc2cccc(C(=N)N)c2)NS(=O)(=O)c2ccc3ccccc3c2)CC1 [Compound 30]
Ki ([3]; Table 9.1): 12400 nM
Ki ([1]; Table 9.1): 4900 nM

Compound: L-Dab
P2 Position % Activity Hepsin [4]: 13.49%
P3 Position % Activity Hepsin [4]: 48.55%
P4 Position % Activity Hepsin [4]: 47.53%
P2 Position % Activity HGFA [5]: 0.50%
P3 Position % Activity HGFA [5]: 29.40%
P4 Position % Activity HGFA [5]: 16.76%

Second part, the compound after the results:

Ki ([3]; Table 9.1): 4400 nM
Ki ([1]; Table 9.1): 1700 nM
Compound: N=C(N)c1cccc(C[C@H](NS(=O)(=O)c2ccc3ccccc3c2)C(=O)N2CCN(C(=O)Cc3cccc(O)c3)CC2)c1 [Compound 31]

Ki ([3]; Table 9.1): 2800 nM
Ki ([1]; Table 9.1): 1000 nM
Compound: N=C(N)c1cccc(C[C@H](NS(=O)(=O)c2ccc3ccccc3c2)C(=O)N2CCN(C(=O)Cc3ccc(F)cc3)CC2)c1 [Compound 32]

Ki ([3]; Table 6.1): 1.6 nM
Compound: N=C(N)NCCC[C@H](NC(=O)[C@H](CCC(N)=O)NC(=O)OCC1c2ccccc2-c2ccccc21)C(=O)c1nc2ccccc2s1 [Compound 7185-6, Fmoc-QR-kbt]

Ki ([3]; Table 9.1): 2780 nM
Ki ([1]; Table 9.1): 39500 nM
Compound: CCOC(=O)N1CCN(C(=O)[C@H](Cc2cccc(C(=N)N)c2)NS(=O)(=O)c2ccc3ccccc3c2)CC1 [FMF-1-275-004]

P2 Position % Activity Hepsin [4]: 0.00%
P3 Position % Activity Hepsin [4]: 27.04%
P4 Position % Activity Hepsin [4]: 22.58%
P2 Position % Activity HGFA [5]: 0.00%
P3 Position % Activity HGFA [5]: 5.76%
P4 Position % Activity HGFA [5]: 8.25%
Compound: D-Val

P2 Position % Activity Hepsin [4]: 10.66%
P3 Position % Activity Hepsin [4]: 1.64%
P4 Position % Activity Hepsin [4]: 34.68%
P2 Position % Activity HGFA [5]: 1.75%
P3 Position % Activity HGFA [5]: 0.83%
P4 Position % Activity HGFA [5]: 9.25%
Compound: L-Pip

P2 Position % Activity Hepsin [4]: 0.00%
P3 Position % Activity Hepsin [4]: 22.78%
P4 Position % Activity Hepsin [4]: 30.74%
P2 Position % Activity HGFA [5]: 0.24%
P3 Position % Activity HGFA [5]: 15.95%
P4 Position % Activity HGFA [5]: 10.07%
Compound: β-Ala
